Common to all, as to assay: relative viability (nuclei count vs DMSO), 5 days (fraction); higher = more cells survive
Compound in test [1]: CCN(CCO)CCCC(C)Nc1ccnc2cc(Cl)ccc12 [Hydroxychloroquine] + CS(=O)(=O)CCNCc1ccc(-c2ccc3ncnc(Nc4ccc(OCc5cccc(F)c5)c(Cl)c4)c3c2)o1 [Lapatinib] (partner 2 µM)
The essentials: (§1)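 Relative viability was taken as the ratio of nuclei in treated wells to nuclei in vehicle wells. Lung cancer cell lines in 1536-well plates received compounds by pin tool one day after seeding, either one drug alone or a fixed anchor-drug dose plus five library-drug doses (not always all listed) in √10 steps. Nuclei were counted on 4× images after 5 days of treatment, and values are medians of duplicate plates.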

Compound in test [2]: CCN(CCO)CCCC(C)Nc1ccnc2cc(Cl)ccc12 [Hydroxychloroquine] + CCNC(=O)c1noc(-c2cc(C(C)C)c(O)cc2O)c1-c1ccc(CN2CCOCC2)cc1 [Luminespib] (partner 0.01 µM)
In a few lines: as §1

Compound in test [3]: CCN(CCO)CCCC(C)Nc1ccnc2cc(Cl)ccc12 [Hydroxychloroquine] + O=C(c1cc(Cc2n[nH]c(=O)c3ccccc23)ccc1F)N1CCN(C(=O)C2CC2)CC1 [Olaparib] (partner 8 µM)
In a few lines: as §1

Compound in test [4]: CCN(CCO)CCCC(C)Nc1ccnc2cc(Cl)ccc12 [Hydroxychloroquine] + Nc1ncn([C@H]2C[C@H](O)[C@@H](CO)O2)c(=O)n1 [Decitabine] (partner 2 µM)
In a few lines:
as §1

On to H3255, for which the relative viability is 0.272 in test [1] (first compound 0.5 µM); 0.243 in test [1] (first compound 1.581 µM); 0.205 in test [1] (first compound 5 µM); 0.248 in test [1] (first compound 15.81 µM); 0.202 in test [1] (first compound 50 µM); 0.966 in test [2] (first compound 0.5 µM). The relative viability is 0.874 in test [2] (first compound 1.581 µM); 0.912 in test [2] (first compound 5 µM); 0.819 in test [2] (first compound 15.81 µM); 0.742 in test [2] (first compound 50 µM); 0.592 in test [3] (first compound 0.5 µM); 0.562 in test [3] (first compound 1.581 µM). Also, the relative viability in test [3] (first compound 5 µM) was 0.544; in test [3] (first compound 15.81 µM) it was 0.582; in test [3] (first compound 50 µM) it was 0.55; in test [4] (first compound 0.5 µM), 0.612; in test [4] (first compound 1.581 µM) it was 0.536; in test [4] (first compound 5 µM), 0.593. The relative viability worked out at 0.718 in test [4] (first compound 15.81 µM) and 0.592 in test [4] (first compound 50 µM).

On to LXF-289, for which the relative viability was determined as 0.868 in test [1] (first compound 0.5 µM); 0.906 in test [1] (first compound 1.581 µM); 0.911 in test [1] (first compound 5 µM); 0.848 in test [1] (first compound 15.81 µM); 0.891 in test [1] (first compound 50 µM); 0.745 in test [2] (first compound 0.5 µM). Also, the relative viability was determined as 0.824 in test [2] (first compound 1.581 µM); 0.713 in test [2] (first compound 5 µM); 0.576 in test [2] (first compound 15.81 µM); 0.721 in test [2] (first compound 50 µM); 1.07 in test [3] (first compound 0.5 µM); 1.06 in test [3] (first compound 1.581 µM). The relative viability in test [3] (first compound 5 µM) was determined as 1.07; in test [3] (first compound 15.81 µM) it was 1.15; in test [3] (first compound 50 µM), 1.16; in test [4] (first compound 0.5 µM), 0.411; in test [4] (first compound 1.581 µM), 0.395; in test [4] (first compound 5 µM), 0.338. Also, the values for the relative viability in test [4] (first compound 15.81 µM) and in test [4] (first compound 50 µM) were 0.366 and 0.357, respectively.

LC-2-ad: the relative viability amounted to 0.977 in test [1] (first compound 0.5 µM); 0.958 in test [1] (first compound 1.581 µM); 0.979 in test [1] (first compound 5 µM); 0.999 in test [1] (first compound 15.81 µM); 1.02 in test [1] (first compound 50 µM); 1.19 in test [2] (first compound 0.5 µM). Further, the relative viability came to 1.02 in test [2] (first compound 1.581 µM); 0.906 in test [2] (first compound 5 µM); 1.01 in test [2] (first compound 15.81 µM); 0.969 in test [2] (first compound 50 µM); 0.673 in test [3] (first compound 0.5 µM); 0.664 in test [3] (first compound 1.581 µM). Besides, the relative viability in test [3] (first compound 5 µM) was 0.738; in test [3] (first compound 15.81 µM), 0.725; in test [3] (first compound 50 µM) it was 0.772; in test [4] (first compound 0.5 µM) it was 0.732; in test [4] (first compound 1.581 µM) it was 0.777; in test [4] (first compound 5 µM) it was 0.776. Further, the relative viability came to 0.744 in test [4] (first compound 15.81 µM) and 0.854 in test [4] (first compound 50 µM).

As for SK-MES-1, the relative viability in test [1] (first compound 0.5 µM) was determined as 0.515; in test [1] (first compound 1.581 µM), 0.418; in test [1] (first compound 5 µM), 0.487; in test [1] (first compound 15.81 µM), 0.472; in test [1] (first compound 50 µM) it was 0.449; in test [2] (first compound 0.5 µM) it was 0.725. The relative viability in test [2] (first compound 1.581 µM) came out at 0.818; in test [2] (first compound 5 µM), 0.778; in test [2] (first compound 15.81 µM) it was 0.84; in test [2] (first compound 50 µM) it was 0.661; in test [3] (first compound 0.5 µM), 0.812; in test [3] (first compound 1.581 µM), 0.683. Also, the relative viability stood at 0.724 in test [3] (first compound 5 µM); 0.738 in test [3] (first compound 15.81 µM); 0.671 in test [3] (first compound 50 µM); 0.389 in test [4] (first compound 0.5 µM); 0.304 in test [4] (first compound 1.581 µM); 0.419 in test [4] (first compound 5 µM). The results for the relative viability in test [4] (first compound 15.81 µM) and in test [4] (first compound 50 µM) were 0.361 and 0.366, respectively.
